Test results taken from patent US6887882B2, “Pharmaceutical compositions comprising chelidonine or derivatives thereof” (priority 2002, dated 2005).

What was measured:
hKv1.5 channel [1] = molecular target: T1, hKv1.5 channel (Homo sapiens, UniProt P22460); assay: Block of hKv1.5 channel currents expressed in Ltk-cells (whole cell patch clamp); format: cell-based
T1 construct: expressed in transfected cells; host or cells: mouse Ltk- cells (pMSVneo vector, G418 selection)
Method: Cell line selectively expressing a specific cardiac K^+ channel gene was prepared according to the method described in the thesis (Yang, et al., Inhibition of cardiac potassium currents by the vesnarinone analog OPC-18790: comparison with quinidine and dofetilide. J Pharmacol Exp Ther. 1997, 280: 1170-1175; Kwak, et al., Phosphorylation is required for alteration of Kv1.5 K^+ channel function by the Kvbeta 1.3 subunit. J Biol Chem 1999, 274: 25355-25361).
First, cDNAs for human cardiac K^+ channel genes such as hKv 1.5 and HERG were subcloned into pMSVneo which contain dexamethasone-inducible murine mammary tumor virus promoter controlling transcription of the inserted cDNA and a gene conferring neomycin resistance driven by the SV40 early promotor. The cDNA-containing expression vector was transfected into mouse Ltk-cells with lipofectamine. After 24 hours, the cells selection with […] of G418 was performed for 2 weeks or until discrete foci formed. Individual foci were isolated, maintained in 0.25 μg/ml of G418, and screened by Norhtern analysis and electrophysiological analysis. Transfected cells were cultured in Dulbeco's modified Eagle medium (DMEM) supplemented with 10% horse serum and 0.25 μg/ml of G418, under 5% CO2. Transiently transfected cells were cultured in DMEM media supplemented with only 10% horse serum, differently from stable cell lines.
(§1) Currents in human atrial myocytes and cell lines were recorded by using the whole cell configuration of the gigaohm-seal patch clamp techniques (Kwak, et al., Phosphorylation is required for alteration of Kv1.5 K^+ channel function by the Kvbeta 1.3 subunit. J Biol Chem 1999, 274: 25355-25361). First, electrical signals were amplified with a patch clamp amplifier (Axon Instruments, Axopatch-1D, Foster, USA). Currents were digitized by a signal converter (Digidata 1200, Axon Instruments) and stored on the hard disk of a computer. The micropipette with a resistance of 1˜2MΩ (Kimax-51, 1.5=14 1.8×10 mm) for current recording, was pulled out by a 2-stage pipette puller (Narishige, PP-83). The intracellular pipette-filling solution for whole cell mode contained 100 mM KCl, 10 mM HEPES, 5 mM K4BAPTA, 5 mM K2ATP and 1 mM MgCl2 (pH 7.2). The extracellular solution contained 130 mM NaCl, 4 mM KCl, 1.8 mM CaCl2, 1 mM MgCl2, 10 mM HEPES and 10 mM glucose (pH 7.35).
The current traces were recorded with a depolarizing pulse of +50 mV from a holding potential of −80 mV, followed by a repolarizing pulse of −50 mV in the Ltk-cells. To observe the concentration-dependent block of hKv1.5 channel currents by each compound, steady-state currents taken at the end of the depolarizing pulse of +50 mV were normalized to the control obtained in the absence of each compound
FIG. 1e is concentration-response curves showing the relative steady-state currents obtained at the end of the depolarizing pulse against the concentration of each compound. Data were fitted with a Hill equation.
IC50 values (50% inhibitory concentration, μM) of compounds 1˜14 on the hKv1.5 channel currents were determined, and Hill values were calculated from the concentration-response curves of the respective compounds using the Hill equation.

hKv1.5 channel [2] = molecular target: T1, hKv1.5 channel; assay: Voltage-dependent block of hKv1.5 channel currents expressed in Ltk-cells; format: cell-based; settings: 10 μM
From the text: To quantify the voltage-dependent block of chelidonine (compound 1), the relative steady state current, Ichelidonine/Icontrol was plotted as a function of membrane potential (FIG. 2). The steady-state currents were obtained at the end stage of 250 ms depolarizing pulses, while increasing the membrane voltage by 10 mV from −80 to +60 mV. The dotted line denotes the activation curve of hKv1.5 channel current expressed in Ltk-cells.

hKv1.5 channel [3] = molecular target: T1, hKv1.5 channel; assay: Channel state-dependency of hKv1.5 block (tail currents); format: cell-based; settings: 10 μM; tail currents at -50 mV after +50 mV pulse
From the text: We tested the channel state-dependency of hKv1.5 block by chelidonine (FIG. 3).
Under control conditions, the tail currents were rapidly deactivated.

mouse = settings: intravenously; cited from earlier work
[4] = system: K+ channel current in human atrial myocytes; assay: Effect on the K+ current in human atrial myocytes (whole cell patch clamp); format: cell-based
Method: as §1
Isolation of human atrial myocytes was carried out by the Wang, et al.'s method (Effects of flecainide, quinidine, and 4-aminopyridine on transient outward and ultrarapid delayed rectifier currents in human atrial myocytes. J Pharmacol Exp Ther 1995, 272: 184-196). Specimens of human right atrial appendage were obtained from the hearts of patients undergoing cardiopulmonary bypass surgery. […]

T1 sequence (P22460 whole entry): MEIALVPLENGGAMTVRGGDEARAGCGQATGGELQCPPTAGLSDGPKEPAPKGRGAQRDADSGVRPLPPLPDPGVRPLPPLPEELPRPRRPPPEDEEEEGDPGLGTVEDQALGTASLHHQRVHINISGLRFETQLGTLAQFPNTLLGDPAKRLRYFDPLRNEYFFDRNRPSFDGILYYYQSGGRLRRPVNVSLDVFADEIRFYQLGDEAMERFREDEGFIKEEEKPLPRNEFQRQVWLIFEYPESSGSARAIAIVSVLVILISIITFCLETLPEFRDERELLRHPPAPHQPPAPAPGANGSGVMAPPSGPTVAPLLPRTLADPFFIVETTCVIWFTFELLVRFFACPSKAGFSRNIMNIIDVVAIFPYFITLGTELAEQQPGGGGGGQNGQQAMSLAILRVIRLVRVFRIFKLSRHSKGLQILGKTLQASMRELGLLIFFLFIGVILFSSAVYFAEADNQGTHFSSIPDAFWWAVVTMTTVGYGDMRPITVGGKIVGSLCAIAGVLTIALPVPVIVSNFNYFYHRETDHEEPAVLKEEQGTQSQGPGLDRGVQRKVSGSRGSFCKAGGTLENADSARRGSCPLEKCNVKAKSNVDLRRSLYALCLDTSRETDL

## CN1Cc2c(ccc3c2OCO3)[C@@H]2[C@H]1c1cc3c(cc1C[C@@H]2O)OCO3 [Compound 1, [5bR-(5bα,6β,12bα)]-5b,6,7,12b,13, 14-hexahydro-13-methyl[1,3]benzodioxolo[5,6c]-1,3-dioxolo[4,5-i]phenanthridin-6-ol]
hKv1.5 channel [1]; from concentration-response curves using the Hill equation
  Hill value: 1.07
hKv1.5 channel [1]; hKv1.5 expressed in Ltk-cells, FIGS. 1a to 1e
  type of hKv1.5 block: predominantly blocked the open ion channels
hKv1.5 channel [1]; hKv1.5 expressed in Ltk-cells, FIGS. 1a to 1d
  effect on the hKv1.5 channel currents: concentration-dependent inhibitory effects
hKv1.5 channel [1]; hKv1.5 expressed in Ltk-cells, steady-state current at end of +50 mV depolarizing pulse, holding -80 mV
  IC50: 11.5 ± 3.1 µM
hKv1.5 channel [2]; between 0 mV and +60 mV
  voltage-dependence of block: weak voltage-dependence
hKv1.5 channel [2]; between 0 mV and +60 mV, n=7
  δ value (Woodhull equation): 0.16±0.01
hKv1.5 channel [2]; between -30 mV and 0 mV
  voltage-dependence of block: strong voltage-dependence
hKv1.5 channel [3]
  channel state-dependency of hKv1.5 block: acts as an open channel blocker
mouse
  toxicity: 34.6 ± 2.44 mg/kg
[4]; 10 μM
  effect on peak amplitude of outward K+ current: decreased the peak amplitude
[4]; compared to control, n=7, read-out: inhibition of steady-state currents at the end of the depolarizing pulse of +50 mV
  inhibition at 10 µM: 41 ± 5%
